This note sets out measurements from patent USRE50082E1, “(5,6-dihydro)pyrimido[4,5-e]indolizines” (NETHERLANDS TRANSLATIONAL RESEARCH CENTER B.V., priority 2014, dated 2024).

For the experiment, the system named is MOLT-4 cancer cell line. Briefly: Cell proliferation assay, MOLT-4 cancer cell line (ATPlite).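 Note: luminescence read-out, percent growth versus compound-free DMSO wells as maximum growth, start-of-incubation signal separating growth from cell death, IC50 from logistic curve fit.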 It is filed as cell-based. The conditions noted are these: Homo sapiens, MOLT-4; 72 hours incubation, ATPlite 1Step; read-out: IC50 MOLT-4 cell proliferation.
Procedure: 5 μL of compound solution was added and the plates were incubated for an additional 72 hours after which 25 μL of ATPlite 1Step™ (PerkinElmer, Groningen, The Netherlands) solution was added to each well. Luminescence was recorded on an Envision multimode reader. The cell signal at the start of incubation was recorded separately in order to distinguish between cell population growth and cell death. In addition, maximum growth was determined by incubation of a duplicate without compound in the presence of 0.4% DMSO. Percentage growth was used as the main y-axis signal. IC50s were fitted by non-linear regression using IDBS XLfit™5 using a 4-parameter logistic curve, yielding a maximum signal, minimum signal, hill-parameter and IC50.
As for `Cc1cccc(Cl)c1NC(=O)c1ccn2c1CCc1cnc(Nc3ccc(N4CCN(C)CC4)cc3OC(F)F)nc1-2` [Example 86, N-(2-chloro-6-methyl-phenyl)-2-[2-(difluoromethoxy)-4-(4-methylpiperazin-1-yl)anilino]-5,6-dihydropyrimido[4,5-e]indolizine-7-carboxamide], the IC50 is < 50 nM.

For `CCCCS(=O)(=O)N1CCN(c2ccc(Nc3ncc4c(n3)-n3ccc(C(=O)Nc5c(C)cccc5C)c3CC4)c(OC)c2)CC1` [Example 113, 2-[4-(4-Butylsulfonylpiperazin-1-yl)-2-methoxy-anilino]-N-(2,6-dimethylphenyl)-5,6-dihydropyrimido[4,5-e]indolizine-7-carboxamide], the IC50 was < 50 nM. For the compound `Cc1cccc(C)c1NC(=O)c1ccn2c1CCc1cnc(Nc3ccc(N4CCOCC4)nc3C)nc1-2` [Example 68, N-(2,6-dimethylphenyl)-2-[(2-methyl-6-morpholino-3-pyridyl)amino]-5,6-dihydropyrimido[4,5-e]indolizine-7-carboxamide], the IC50 was < 50 nM. For the compound `CCc1cccc(CC)c1NC(=O)c1ccn2c1CCc1cnc(Nc3ccc(C(=O)NC4CCN(C)CC4)cc3C)nc1-2` [Example 36, N-(2,6-diethylphenyl)-2-[2-methyl-4-[(1-methyl-4-piperidyl)carbamoyl]anilino]-5,6-dihydropyrimido[4,5-e]indolizine-7-carboxamide], the IC50 lay within 50 to 150 nM. `Cc1cc(N2CCN(C)CC2)ccc1Nc1ncc2c(n1)-n1ccc(C(=O)Nc3c(C)cccc3C)c1CC2` [Example 63, N-(2,6-dimethylphenyl)-2-[2-methyl-4-(4-methylpiperazin-1-yl)anilino]-5,6-dihydropyrimido[4,5-e]indolizine-7-carboxamide]: the IC50 is < 50 nM. With `COc1cc(OC2CCN(C)CC2)ccc1Nc1ncc2c(n1)-n1ccc(C(=O)Nc3c(C)cccc3C)c1CC2` [Example 39, N-(2,6-dimethylphenyl)-2-[2-methoxy-4-[(1-methyl-4-piperidyl)oxy]anilino]-5,6-dihydropyrimido[4,5-e]indolizine-7-carboxamide], the IC50 is < 50 nM. For the compound `Cc1cc(N2CCNCC2)ccc1Nc1ncc2c(n1)-n1ccc(C(=O)Nc3c(C)cccc3C)c1CC2` [Example 58, N-(2,6-dimethylphenyl)-2-(2-methyl-4-piperazin-1-yl-anilino)-5,6-dihydropyrimido[4,5-e]indolizine-7-carboxamide], the IC50 is < 50 nM.

As for `CCc1nn(CCOC)c(CC)c1NC(=O)c1ccn2c1CCc1cnc(Nc3ccc(N4CCNCC4)cc3OC)nc1-2` [Example 19, N-[3,5-diethyl-1-(2-methoxyethyl)pyrazol-4-yl]-2-(2-methoxy-4-piperazin-1-yl-anilino)-5,6-dihydropyrimido[4,5-e]indolizine-7-carboxamide], the IC50 is < 50 nM.

`Cc1cc(OC2CCN(C)CC2)ccc1Nc1ncc2c(n1)-n1ccc(C(=O)Nc3c(C)cccc3Cl)c1CC2` [Example 46, N-(2-chloro-6-methyl-phenyl)-2-[2-methyl-4-[(1-methyl-4-piperidyl)oxy]anilino]-5,6-dihydropyrimido[4,5-e]indolizine-7-carboxamide]: the IC50 was < 50 nM.

With `COc1cc(N2CCN(C(=O)NC(C)C)CC2)ccc1Nc1ncc2c(n1)-n1ccc(C(=O)Nc3c(C)cccc3C)c1CC2` [Example 145, N-(2,6-dimethylphenyl)-2-[4-[4-(isopropylcarbamoyl)piperazin-1-yl]-2-methoxy-anilino]-5,6-dihydropyrimido[4,5-e]indolizine-7-carboxamide], the IC50 is < 50 nM. With `COCCn1nc(C)c(NC(=O)c2ccn3c2CCc2cnc(Nc4ccc(OC5CNC5)cc4OC)nc2-3)c1C` [Example 91, 2-[4-(Azetidin-3-yloxy)-2-methoxy-anilino]-N-[1-(2-methoxyethyl)-3,5-dimethyl-pyrazol-4-yl]-5,6-dihydropyrimido[4,5-e]indolizine-7-carboxamide] the figure was 50 to 150 nM; with `CCNC(=O)N1CCN(c2ccc(Nc3ncc4c(n3)-n3ccc(C(=O)Nc5c(C)cccc5C)c3CC4)c(OC)c2)CC1` [Example 114, N-(2,6-dimethylphenyl)-2-[4-[4-(ethylcarbamoyl)piperazin-1-yl]-2-methoxy-anilino]-5,6-dihydropyrimido[4,5-e]indolizine-7-carboxamide], < 50 nM.

`CCc1cccc(CC)c1NC(=O)c1ccn2c1CCc1cnc(Nc3cc(Cl)c(N4CCN(C)CC4)cc3OC)nc1-2` [Example 102, 2-[5-Chloro-2-methoxy-4-(4-methylpiperazin-1-yl)anilino]-N-(2,6-diethylphenyl)-5,6-dihydropyrimido[4,5-e]indolizine-7-carboxamide]: the IC50 was in the range of 50 to 150 nM. As to `COc1cc(N2CCNCC2)ccc1Nc1ncc2c(n1)-n1ccc(C(=O)Nc3c(C)cccc3Cl)c1CC2` [Example 75, N-(2-chloro-6-methyl-phenyl)-2-(2-methoxy-4-piperazin-1-yl-anilino)-5,6-dihydropyrimido[4,5-e]indolizine-7-carboxamide], the IC50 was < 50 nM. With `COCCn1nc(C)c(NC(=O)c2ccn3c2CCc2cnc(Nc4ccc(N5CCN(C(C)=O)CC5)cc4OC)nc2-3)c1C` [Example 131, 2-[4-(4-Acetylpiperazin-1-yl)-2-methoxy-anilino]-N-[1-(2-methoxyethyl)-3,5-dimethyl-pyrazol-4-yl]-5,6-dihydropyrimido[4,5-e]indolizine-7-carboxamide], the IC50 is 50 to 150 nM.

Regarding `CCc1ccccc1NC(=O)c1ccn2c1CCc1cnc(Nc3ccc(N4CCN(C)CC4)cc3OC)nc1-2` [Example 29, N-(2-ethylphenyl)-2-[2-methoxy-4-(4-methylpiperazin-1-yl)anilino]-5,6-dihydropyrimido[4,5-e]indolizine-7-carboxamide], the IC50 fell in the range of 50 to 150 nM. On to `Cc1cc(N2CCNCC2)ccc1Nc1ncc2c(n1)-n1ccc(C(=O)Nc3c(Cl)cccc3Cl)c1CC2` [Example 79, N-(2,6-dichlorophenyl)-2-(2-methyl-4-piperazin-1-yl-anilino)-5,6-dihydropyrimido[4,5-e]indolizine-7-carboxamide], for which the IC50 is < 50 nM. As to `CCc1cccc(C)c1NC(=O)c1ccn2c1CCc1cnc(Nc3ccc(N4CCN(C)CC4)cc3C)nc1-2` [Example 64, N-(2-ethyl-6-methyl-phenyl)-2-[2-methyl-4-(4-methylpiperazin-1-yl)anilino]-5,6-dihydropyrimido[4,5-e]indolizine-7-carboxamide], the IC50 is < 50 nM. In the case of `Cc1cc(N2CCOCC2)ncc1Nc1ncc2c(n1)-n1ccc(C(=O)Nc3c(C)cccc3C)c1CC2` [Example 34, N-(2,6-dimethylphenyl)-2-[(4-methyl-6-morpholino-3-pyridyl)amino]-5,6-dihydropyrimido[4,5-e]indolizine-7-carboxamide], the IC50 was 50 to 150 nM.

Take `COc1cc(N2CCNCC2)ccc1Nc1ncc2c(n1)-n1ccc(C(=O)Nc3c(C)nn(CC(C)(C)O)c3C)c1CC2` [Example 98, N-[1-(2-hydroxy-2-methyl-propyl)-3,5-dimethyl-pyrazol-4-yl]-2-(2-methoxy-4-piperazin-1-yl-anilino)-5,6-dihydropyrimido[4,5-e]indolizine-7-carboxamide]: the IC50 was 50 to 150 nM.

As for `COc1cc(N2CCN(C)CC2)ccc1Nc1ncc2c(n1)-n1ccc(C(=O)Nc3c(C)nn(C)c3Cl)c1CC2` [Example 28, N-(5-chloro-1,3-dimethyl-pyrazol-4-yl)-2-[2-methoxy-4-(4-methylpiperazin-1-yl)anilino]-5,6-dihydropyrimido[4,5-e]indolizine-7-carboxamide], the IC50 was in the range of 50 to 150 nM. Take `COc1cc(N2CCN(C)CC2)ccc1Nc1ncc2c(n1)-n1ccc(C(=O)Nc3c(Cl)cccc3Cl)c1CC2` [Example 61, N-(2,6-dichlorophenyl)-2-[2-methoxy-4-(4-methylpiperazin-1-yl)anilino]-5,6-dihydropyrimido[4,5-e]indolizine-7-carboxamide]: the IC50 was < 50 nM. `COc1cc(C(=O)N2CCC(C)(C#N)CC2)ccc1Nc1ncc2c(n1)-n1ccc(C(=O)Nc3c(C)cccc3C)c1CC2` [Example 129, 2-[4-(4-Cyano-4-methyl-piperidine-1-carbonyl)-2-methoxy-anilino]-N-(2,6-dimethylphenyl)-5,6-dihydropyrimido[4,5-e]indolizine-7-carboxamide]: the IC50 is < 50 nM.

For the compound `CCc1n[nH]c(CC)c1NC(=O)c1ccn2c1CCc1cnc(Nc3ccc(N4CCNCC4)cc3OC)nc1-2` [Example 18, N-(3,5-diethyl-1H-pyrazol-4-yl)-2-(2-methoxy-4-piperazin-1-ylanilino)-5,6-dihydropyrimido[4,5-e]indolizine-7-carboxamide], the IC50 is < 50 nM. For `Cc1cc(N2CCN(C)CC2)ccc1Nc1ncc2c(n1)-n1ccc(C(=O)Nc3c(Cl)cccc3Cl)c1CC2` [Example 66, N-(2,6-dichlorophenyl)-2-[2-methyl-4-(4-methylpiperazin-1-yl)anilino]-5,6-dihydropyrimido[4,5-e]indolizine-7-carboxamide] the value was < 50 nM; for `COc1cc(C(=O)NC(C)C)ccc1Nc1ncc2c(n1)-n1ccc(C(=O)Nc3c(C)cccc3C)c1CC2` [Example 120, N-(2,6-dimethylphenyl)-2-[4-(isopropylcarbamoyl)-2-methoxy-anilino]-5,6-dihydropyrimido[4,5-e]indolizine-7-carboxamide], < 50 nM; for `[2H]C([2H])([2H])Oc1cc(N2CCN(C)CC2)ccc1Nc1ncc2c(n1)-n1ccc(C(=O)Nc3c(CC)nn(CCOC)c3CC)c1CC2` [Example 100, N-[3,5-diethyl-1-(2-methoxyethyl)pyrazol-4-yl]-2-[4-(4-methylpiperazin-1-yl)-2-(trideuteriomethoxy)anilino]-5,6-dihydropyrimido[4,5-e]indolizine-7-carboxamide], < 50 nM.

Turning to `CCc1cccc(CC)c1NC(=O)c1ccn2c1CCc1cnc(Nc3ccc(N4CCNC(C)C4)cc3OC)nc1-2` (stereo not shown) [Example 116, N-(2,6-diethylphenyl)-2-[2-methoxy-4-(3-methylpiperazin-1-yl)anilino]-5,6-dihydropyrimido[4,5-e]indolizine-7-carboxamide], the IC50 is < 50 nM.
